# Data as given in ChEMBL document CHEMBL1158459, “Discovery of a peroxisome proliferator activated receptor gamma (PPARgamma) modulator with balanced PPARalpha activity for the treatment of type 2 diabetes and dyslipidemia” (J Med Chem, 2009).
# Calls of active or inactive are those of the source. The calls are words filed in the database; no cut-off is given here.
# Experiments:
# Rattus norvegicus [1] = test: Antidiabetic activity in Zucker fa/fa rat assessed as decrease in free fatty acid levels at 10 mg/kg, po once daily for 7 days; type: functional, organism-based; set-up: dose 10 mg/kg
# Cytochrome P450 2C9 = Cytochrome P450 2C9 (Homo sapiens, UniProt P11712); test: Inhibition of CYP2C9; type: ADME
# Cytochrome P450 2C9, sequence (P11712 whole entry): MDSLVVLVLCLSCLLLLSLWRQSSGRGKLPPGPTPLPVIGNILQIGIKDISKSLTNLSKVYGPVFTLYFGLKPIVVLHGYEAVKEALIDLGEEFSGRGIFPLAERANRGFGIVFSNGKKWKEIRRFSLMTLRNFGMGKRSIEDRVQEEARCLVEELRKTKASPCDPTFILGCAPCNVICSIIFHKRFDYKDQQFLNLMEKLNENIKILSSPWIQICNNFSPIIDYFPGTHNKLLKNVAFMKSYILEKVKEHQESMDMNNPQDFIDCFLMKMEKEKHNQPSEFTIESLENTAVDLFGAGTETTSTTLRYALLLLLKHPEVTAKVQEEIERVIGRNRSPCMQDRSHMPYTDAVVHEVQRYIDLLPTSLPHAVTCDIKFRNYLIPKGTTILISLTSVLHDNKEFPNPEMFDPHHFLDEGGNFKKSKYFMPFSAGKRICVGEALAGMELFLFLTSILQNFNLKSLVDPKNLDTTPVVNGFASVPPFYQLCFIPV
# Mus musculus [2] = test: Antidiabetic activity in ob/ob mouse assessed as reduction in plasma triglyceride levels at 10 mg/kg, po once daily for 5 days relative to control; type: functional; set-up: scale not given: the % may be the effect or the level left
# Mus musculus [3] = test: Antidiabetic activity in high fat diet-fed streptozotocin-treated mouse assessed as reduction in plasma glucose levels at 5 mg/kg, po once daily for 12 days relative to control; type: functional; set-up: scale not given: the % may be the effect or the level left
# Mus musculus [4] = test: Antidiabetic activity in ob/ob mouse assessed as insulin correction at 10 mg/kg, po once daily for 5 days relative to control; type: functional
# Rattus norvegicus [5] = test: Antidiabetic activity in Zucker fa/fa rat assessed as decrease in triglyceride levels at 0.03 mg/kg, po once daily for 7 days; type: functional, organism-based; set-up: dose 0.03 mg/kg
# Rattus norvegicus [6] = test: Toxicity in Sprague-Dawley rat assessed as increase in liver weight at 60 mg/kg, po once daily for 14 days; type: organism-based; set-up: dose 60 mg/kg, route oral; conditions: in vivo, 336 h
# Syrian golden hamster = test: Antidiabetic activity in Syrian golden hamster assessed as reduction in cholesterol level at 3 mg/kg, po once daily for 9 days relative to control; type: functional, Mesocricetus auratus; set-up: scale not given: the % may be the effect or the level left
# [7] = Cmax in Syrian golden hamster at 0.3 mg/kg, po once daily for 9 days; type: ADME, organism-based, Mesocricetus auratus; set-up: dose 0.3 mg/kg, route oral; conditions: in vivo
# [8] = biological target: Estrogen receptor (Homo sapiens) (UniProt P03372); test: Binding affinity to ERalpha up to 10 uM
# Estrogen receptor (Homo sapiens), sequence (P03372 whole entry): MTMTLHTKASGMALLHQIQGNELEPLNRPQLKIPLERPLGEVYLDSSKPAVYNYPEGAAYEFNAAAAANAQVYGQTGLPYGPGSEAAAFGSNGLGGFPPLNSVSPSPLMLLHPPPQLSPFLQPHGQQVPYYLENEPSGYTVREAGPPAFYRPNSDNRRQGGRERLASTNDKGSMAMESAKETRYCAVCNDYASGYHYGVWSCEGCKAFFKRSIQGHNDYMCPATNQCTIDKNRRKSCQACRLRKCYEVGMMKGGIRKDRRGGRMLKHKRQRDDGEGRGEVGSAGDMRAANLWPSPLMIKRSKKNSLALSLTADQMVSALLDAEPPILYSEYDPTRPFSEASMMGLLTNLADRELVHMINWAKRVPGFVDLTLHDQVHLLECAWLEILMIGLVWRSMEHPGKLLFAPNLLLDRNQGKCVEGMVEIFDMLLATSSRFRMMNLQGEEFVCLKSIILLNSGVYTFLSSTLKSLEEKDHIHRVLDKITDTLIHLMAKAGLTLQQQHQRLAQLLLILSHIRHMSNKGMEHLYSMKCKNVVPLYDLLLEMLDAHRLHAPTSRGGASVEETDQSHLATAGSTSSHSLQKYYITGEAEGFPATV
# [9] = biological target: T1, Peroxisome proliferator-activated receptor alpha (Homo sapiens, UniProt Q07869); type: functional, cell-based, COS-1
# T1 sequence (Q07869 whole entry): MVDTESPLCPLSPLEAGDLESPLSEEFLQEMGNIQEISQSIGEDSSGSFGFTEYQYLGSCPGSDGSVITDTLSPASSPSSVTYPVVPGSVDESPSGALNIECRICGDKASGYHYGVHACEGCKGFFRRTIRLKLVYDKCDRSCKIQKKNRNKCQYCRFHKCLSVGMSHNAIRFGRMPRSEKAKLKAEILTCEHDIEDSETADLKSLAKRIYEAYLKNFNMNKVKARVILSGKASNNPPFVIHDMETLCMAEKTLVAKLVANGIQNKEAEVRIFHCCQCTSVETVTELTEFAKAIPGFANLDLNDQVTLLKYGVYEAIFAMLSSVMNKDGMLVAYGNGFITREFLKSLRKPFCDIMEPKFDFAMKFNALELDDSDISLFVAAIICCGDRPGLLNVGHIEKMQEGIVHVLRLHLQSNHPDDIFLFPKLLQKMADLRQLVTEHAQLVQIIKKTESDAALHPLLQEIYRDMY
# Description: Agonist activity at human PPARalpha receptor expressed in african green monkey COS1 cells co-transfected with fused yeast Gal4-DBD by transactivation assay
# [10] = biological target: Thyroid hormone receptor alpha (Homo sapiens) (UniProt P10827); test: Activity at TRalpha receptor up to 10 uM by transactivation assay
# Thyroid hormone receptor alpha (Homo sapiens), sequence (P10827 whole entry): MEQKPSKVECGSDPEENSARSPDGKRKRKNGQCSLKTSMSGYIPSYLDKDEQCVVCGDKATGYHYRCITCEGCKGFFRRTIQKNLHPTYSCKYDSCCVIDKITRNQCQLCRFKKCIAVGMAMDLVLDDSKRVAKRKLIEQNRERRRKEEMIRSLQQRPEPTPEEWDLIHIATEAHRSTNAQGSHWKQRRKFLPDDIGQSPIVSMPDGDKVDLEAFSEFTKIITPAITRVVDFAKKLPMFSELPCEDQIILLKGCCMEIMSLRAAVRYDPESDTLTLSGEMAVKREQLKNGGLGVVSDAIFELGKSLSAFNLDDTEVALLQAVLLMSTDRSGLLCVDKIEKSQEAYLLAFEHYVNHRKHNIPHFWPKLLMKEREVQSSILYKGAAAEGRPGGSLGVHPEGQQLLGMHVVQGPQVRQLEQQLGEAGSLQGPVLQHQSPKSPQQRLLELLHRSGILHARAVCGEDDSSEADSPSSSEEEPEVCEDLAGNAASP
# Rattus norvegicus [11] = test: Antidiabetic activity in Zucker fa/fa rat assessed as decrease in free fatty acid levels at 0.03 mg/kg, po once daily for 7 days; type: functional, organism-based; set-up: dose 0.03 mg/kg
# Rattus norvegicus [12] = test: Toxicity in Zucker fa/fa rat assessed as increase in plasma volume at 15 mg/kg, po treated once daily for 7 days; type: organism-based; set-up: dose 15 mg/kg, route oral; conditions: in vivo, 168 h
# Rattus norvegicus [13] = test: Antidiabetic activity in Zucker fa/fa rat assessed as decrease in triglyceride levels at 1 mg/kg, po once daily for 7 days; type: functional, organism-based; set-up: dose 1 mg/kg
# [14] = Cmax in Syrian golden hamster at 1 mg/kg, po once daily for 9 days; type: ADME, organism-based, Mesocricetus auratus; set-up: dose 1 mg/kg, route oral; conditions: in vivo
# Canis familiaris = test: Antidiabetic activity in Beagle dog assessed as reduction in total cholesterol level at 3 mg/kg, po once daily for 14 days relative to control; type: functional, Canis lupus familiaris; set-up: scale not given: the % may be the effect or the level left
# Rattus norvegicus [15] = test: Antidiabetic activity in po dosed Zucker fa/fa rat assessed as insulin lowering activity treated once daily for 7 days; type: functional
# [16] = biological target: Oxysterols receptor LXR-alpha (Homo sapiens) (UniProt Q13133); test: Binding affinity to LXRalpha up to 10 uM
# Oxysterols receptor LXR-alpha (Homo sapiens), sequence (Q13133 whole entry): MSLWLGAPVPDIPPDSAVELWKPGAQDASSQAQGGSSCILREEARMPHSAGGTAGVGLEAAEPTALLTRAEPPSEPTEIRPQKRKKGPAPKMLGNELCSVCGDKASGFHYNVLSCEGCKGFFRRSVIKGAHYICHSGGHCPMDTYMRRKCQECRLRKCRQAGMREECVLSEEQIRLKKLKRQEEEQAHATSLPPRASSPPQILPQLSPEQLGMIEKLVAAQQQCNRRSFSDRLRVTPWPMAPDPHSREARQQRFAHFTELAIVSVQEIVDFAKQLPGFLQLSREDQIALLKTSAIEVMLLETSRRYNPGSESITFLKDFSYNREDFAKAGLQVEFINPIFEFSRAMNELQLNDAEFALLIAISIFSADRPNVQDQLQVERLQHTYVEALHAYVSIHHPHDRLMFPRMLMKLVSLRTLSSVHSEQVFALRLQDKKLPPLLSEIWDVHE
# Mus musculus [17] = test: Antidiabetic activity in C57BLKS/J-m+/+Leprdb db/db mouse assessed as reduction in plasma triglyceride levels at 3 mg/kg, po once daily for 11 days relative to control; type: functional; set-up: scale not given: the % may be the effect or the level left
# Rattus norvegicus [18] = test: Toxicity in Sprague-Dawley rat assessed as hematocrit at 60 mg/kg, po once daily for 14 days; type: organism-based; set-up: dose 60 mg/kg, route oral; conditions: in vivo, 336 h
# [19] = biological target: Nuclear receptor subfamily 1 group I member 2 (Homo sapiens, UniProt O75469); test: Activity at PXR receptor up to 10 uM by transactivation assay
# Nuclear receptor subfamily 1 group I member 2, sequence (O75469 whole entry): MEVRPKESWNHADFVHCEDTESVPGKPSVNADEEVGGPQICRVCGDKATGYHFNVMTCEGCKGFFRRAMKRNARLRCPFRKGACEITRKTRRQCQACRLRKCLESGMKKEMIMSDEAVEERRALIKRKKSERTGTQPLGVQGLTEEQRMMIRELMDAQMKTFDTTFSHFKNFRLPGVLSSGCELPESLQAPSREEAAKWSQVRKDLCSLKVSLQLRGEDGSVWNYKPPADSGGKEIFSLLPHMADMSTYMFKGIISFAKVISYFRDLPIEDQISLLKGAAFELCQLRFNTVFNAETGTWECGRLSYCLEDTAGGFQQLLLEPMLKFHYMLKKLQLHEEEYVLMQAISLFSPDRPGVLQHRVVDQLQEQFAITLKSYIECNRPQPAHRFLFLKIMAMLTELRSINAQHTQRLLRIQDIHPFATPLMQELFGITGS
smiles,measurement,setting,value
CC[C@@H](Oc1cccc(Cn2c(C)c(C(=O)c3ccc(Cl)cc3)c3ccc(OC(F)(F)F)cc32)c1)C(=O)O,Activity,Rattus norvegicus [1],Active
same,IC50,Cytochrome P450 2C9,10 µM
same,Activity,Mus musculus [2],50%
same,Activity,Mus musculus [3],75%
same,Activity,Mus musculus [4],89%
same,Activity,Rattus norvegicus [5],Active
same,Activity,Rattus norvegicus [6],127%
same,Activity,Syrian golden hamster,51.4%
same,Cmax,[7],20 nM
same,Activity,[8],inactive
same,EC50,[9],230 nM
same,Activity,[10],inactive
same,Activity,Rattus norvegicus [11],Active
same,Activity,Rattus norvegicus [12],Non-toxic
same,Activity,Rattus norvegicus [13],Active
same,Cmax,[14],70 nM
same,Activity,Canis familiaris,26%
same,ED50,Rattus norvegicus [15],10 µM·h
same,Activity,[16],inactive
same,Activity,Mus musculus [17],85%
same,Activity,Rattus norvegicus [18],-8%
same,Activity,[19],Not Active
